Laboratory results as given in article PMC3982560, “Synthesis of fluorescent analogs of relaxin family peptides and their preliminary in vitro and in vivo characterization” (Frontiers in Chemistry, 2013).

Experiments:
RXFP2 = biological target: T1, RXFP2 (Homo sapiens, UniProt Q8WXD0); test: cAMP reporter gene assay (pCRE β-galactosidase); conditions: cell-based assay, HEK-293T RXFP2
T1 construct: expressed in transfected cells; host or cells: HEK-293T (co-transfected with pCRE β-galactosidase reporter)
Procedure: The ability of the Cy5.5-labeled insulin/relaxin family peptide analogs to stimulate cAMP production was evaluated using a cAMP reporter gene assay as described (Scott et al., [2006]). HEK-293T cells co-transfected with either RXFP1 or RXFP2 and a pCRE β-galactosidase reporter plasmid were plated in 96-well plates (Chen et al., [1995]). After 24 h, the co-transfected cells were incubated with increasing concentrations of relaxin analogs in parallel to 10 nM of H2 relaxin or INSL3 for RXFP1- or RXFP2- transfected cells, respectively. The amount of cAMP-driven β-galactosidase expression in each well was assessed with a colormetric assay measuring absorbance at 570 nm on a microplate spectrophotometer. Ligand-induced cAMP stimulation was expressed as a percentage of maximal response of H2 relaxin or INSL3 for RXFP1 and RXFP2 cells, respectively. Each data point was measured in triplicate and each experiment conducted independently at least three separate times. Statistical differences in pEC50 values were analyzed using One-Way ANOVA coupled to the Newman Keul's multiple comparison test for multiple group comparisons in GraphPad Prism 4.

[1] = test system: central RXFP1 activation (water drinking); test: Drinking (dipsogenic) response after icv infusion; type: in vivo; conditions: adult male C57B/6J mice; single 4 μg dose icv in 4 μl aCSF; n = 3–4; observed 30 min
Text: (§1) Adult male C57B/6J mice (10-weeks old) were deeply anesthetized by inhalation of 4% isoflurane and anaesthesia was maintained with 2% isoflurane administered at 0.2 l/min through a nasal cone. Mice were secured in a stereotaxic frame and an incision made to expose the skull, which was cleaned with 6% hydrogen peroxide. Two 1 mm-diameter holes were drilled in the skull on either side of the sagittal midline, 3 mm posterior and 3 mm lateral to bregma, to allow small screws (3 mm long) to be secured in order to anchor the guide cannula in place. A third hole of 1 mm in diameter was drilled through the skull to allow implantation of a stainless-steel guide cannula (11 mm long, 24 gauge) just above the lateral ventricle at the coordinates relative to bregma: anterior-posterior −0.46 mm; medial-lateral −0.8 mm; dorsal-ventral −1.8 mm. The guide cannula and screws were fixed in place by application of self-curing acrylic dental cement (Vertex-Dental, the Netherlands).
After 5–10 days recovery post-surgery, mice were gently restrained and an injector was inserted through the guide cannula which protruded 0.5 mm into the lateral ventricle. A single 4 μg dose of each peptide (n = 3–4) was delivered in 4 μ l of artificial CSF (aCSF; 147 mM NaCl, 4 mM KCl, 0.85 mM MgCl2, and 2.3 mM CaCl2), over 1 min via a 10 μ l syringe (0.46 mm diameter) mounted on an infusion pump connected to the injector via polyethylene tubing. Following infusion, the injector was left in place for a further 15 s to prevent backflow of the infused peptide up the guide cannula.
Following peptide infusion, mice were placed back in their clear-walled home cages for 30 min with access to water (and food) and filmed through the side of the cage for subsequent assessment of behavior. After 30 min, mice were killed by isoflurane inhalation overdose, decapitated, and brains were removed and “post-fixed” by immersion in chilled 4% PFA solution. […] Sections were viewed and images collected using a confocal laser scanning microscope, using laser light at λ of 633 nm, while light between λ of 650–750 nm was detected.

brain tissue = test: Brain distribution of Cy5.5 fluorescence after icv infusion; type: in vivo; conditions: mice, 30 min after icv injection of 4 μg
Text: as §1, with “Netherlands). […]” for “Netherlands).”
Following peptide infusion, mice were placed back in their clear-walled home cages for 30 min with access to water (and food) and filmed through the side of the cage for subsequent assessment of behavior. […] Sections were viewed and images collected using a confocal laser scanning microscope, using laser light at λ of 633 nm, while light between λ of 650–750 nm was detected.

T1 sequence (Q8WXD0 whole entry, species assumed): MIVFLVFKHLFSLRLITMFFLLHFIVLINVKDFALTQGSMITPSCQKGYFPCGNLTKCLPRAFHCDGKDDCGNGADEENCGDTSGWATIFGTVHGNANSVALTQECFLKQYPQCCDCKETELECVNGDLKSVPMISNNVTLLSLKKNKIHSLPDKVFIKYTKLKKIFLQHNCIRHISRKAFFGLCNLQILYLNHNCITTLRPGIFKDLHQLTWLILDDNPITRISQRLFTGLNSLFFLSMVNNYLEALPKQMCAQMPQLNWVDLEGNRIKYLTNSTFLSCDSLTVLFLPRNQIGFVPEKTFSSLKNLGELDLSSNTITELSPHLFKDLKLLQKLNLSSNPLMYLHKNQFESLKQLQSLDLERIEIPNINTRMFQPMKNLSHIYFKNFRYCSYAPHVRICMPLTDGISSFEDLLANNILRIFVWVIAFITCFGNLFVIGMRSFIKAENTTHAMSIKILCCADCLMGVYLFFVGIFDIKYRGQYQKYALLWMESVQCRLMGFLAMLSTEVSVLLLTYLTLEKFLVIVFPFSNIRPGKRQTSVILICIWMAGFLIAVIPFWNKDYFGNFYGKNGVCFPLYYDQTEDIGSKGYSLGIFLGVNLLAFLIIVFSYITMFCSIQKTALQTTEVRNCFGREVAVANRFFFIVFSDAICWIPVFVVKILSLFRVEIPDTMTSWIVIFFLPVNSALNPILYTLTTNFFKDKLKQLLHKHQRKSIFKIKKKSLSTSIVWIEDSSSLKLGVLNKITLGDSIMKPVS

Row | Structure (SMILES) | Activation of RXFP2 (in words) (RXFP2) | Drinking behavior after icv infusion (in words) [1] | Distance from the ventricle wall beyond which little or no Cy5.5 fluorescence was seen (brain tissue; confocal microscopy) [μm] | Distribution of Cy5.5 fluorescence in brain (in words) (brain tissue; confocal microscopy of 40 μm coronal sections)
1 | CCCC[N+]1=C(C=CC=CC=C2N(CCCCCC(=O)NCCCn3cc(C[C@H](N)C(=O)N[C@@H](CC(=O)O)C(=O)N[C@@H](CO)C(=O)N[C@@H](Cc4c[nH]c5ccccc45)C(=O)N[C@@H](CCSC)C(=O)N[C@@H](CCC(=O)O)C(=O)N[C@@H](CCC(=O)O)C(=O)N[C@H](C(=O)N[C@H](C(=O)N[C@@H](CCCCN)C(=O)N[C@@H](CC(C)C)C(=O)N[C@H]4CSSC[C@@H]5NC(=O)[C@@H](NC(=O)[C@H](CCCCN)NC(=O)[C@H](CC(N)=O)NC(=O)[C@H](C)NC(=O)[C@H](CC(C)C)NC(=O)[C@H](C)NC(=O)[C@H](CO)NC(=O)[C@H](Cc6ccc(O)cc6)NC(=O)[C@H](CC(C)C)NC(=O)[C@@H]6CCC(=O)N6)CSSC[C@H](NC(=O)CNC(=O)[C@H](C(C)C)NC(=O)[C@H](Cc6c[nH]cn6)NC5=O)C(=O)N[C@@H]([C@@H](C)O)C(=O)N[C@@H](CCCCN)C(=O)N[C@@H](CCCNC(=N)N)C(=O)N[C@@H](CO)C(=O)N[C@@H](CC(C)C)C(=O)N[C@@H](C)C(=O)N[C@@H](CCCNC(=N)N)C(=O)N[C@@H](Cc5ccccc5)C(=O)N[C@H](C(=O)O)CSSC[C@@H](C(=O)NCC(=O)N[C@@H](CCSC)C(=O)N[C@@H](CO)C(=O)N[C@H](C(=O)N[C@@H](Cc5c[nH]c6ccccc56)C(=O)N[C@@H](CO)C(=O)O)[C@@H](C)O)NC(=O)[C@H]([C@@H](C)CC)NC(=O)[C@H](C)NC(=O)[C@H]([C@@H](C)CC)NC(=O)[C@H](CCC(N)=O)NC(=O)[C@H](C)NC(=O)[C@H](CCCNC(=N)N)NC(=O)[C@H](C(C)C)NC(=O)[C@H](CC(C)C)NC(=O)[C@H](CCC(=O)O)NC(=O)[C@H](CCCNC(=N)N)NC(=O)CNC4=O)[C@@H](C)CC)C(C)C)nn3)c3ccc4ccccc4c3C2(C)C)C(C)(C)c2c1ccc1ccccc21 [Cy5.5-H2 relaxin] | activated | stimulated a similar increase in drinking behavior | > 300 | high levels of Cy5.5 were present within the ventricle wall and brain tissue proximal to the major cerebral ventricles
2 | CCCC[N+]1=C(C=CC=CC=C2N(CCCCCC(=O)NCCCn3cc(C[C@H](N)C(=O)N[C@@H](CC(=O)O)C(=O)N[C@@H](CO)C(=O)N[C@@H](Cc4c[nH]c5ccccc45)C(=O)N[C@@H](CCSC)C(=O)N[C@@H](CCC(=O)O)C(=O)N[C@@H](CCC(=O)O)C(=O)N[C@H](C(=O)N[C@H](C(=O)N[C@@H](CCCCN)C(=O)N[C@@H](CC(C)C)C(=O)N[C@H]4CSSC[C@@H]5NC(=O)[C@@H](NC(=O)[C@H](CCCCN)NC(=O)[C@H](CC(N)=O)NC(=O)[C@H](C)NC(=O)[C@H](CC(C)C)NC(=O)[C@H](C)NC(=O)[C@@H](N)CO)CSSC[C@H](NC(=O)CNC(=O)[C@H](C(C)C)NC(=O)[C@H](Cc6c[nH]cn6)NC5=O)C(=O)N[C@@H]([C@@H](C)O)C(=O)N[C@@H](CCCCN)C(=O)N[C@@H](CCCNC(=N)N)C(=O)N[C@@H](CO)C(=O)N[C@@H](CC(C)C)C(=O)N[C@@H](C)C(=O)N[C@@H](CCCNC(=N)N)C(=O)N[C@@H](C)C(=O)N[C@H](C(=O)O)CSSC[C@@H](C(=O)NCC(=O)N[C@@H](CCSC)C(=O)N[C@@H](CO)C(=O)N[C@H](C(=O)N[C@@H](Cc5c[nH]c6ccccc56)C(=O)N[C@@H](CO)C(=O)O)[C@@H](C)O)NC(=O)[C@H]([C@@H](C)CC)NC(=O)[C@H](C)NC(=O)[C@H]([C@@H](C)CC)NC(=O)[C@H](CCC(N)=O)NC(=O)[C@H](C)NC(=O)[C@H](CCCNC(=N)N)NC(=O)[C@H](C(C)C)NC(=O)[C@H](CC(C)C)NC(=O)[C@H](CCC(=O)O)NC(=O)[C@H](CCCNC(=N)N)NC(=O)CNC4=O)[C@@H](C)CC)C(C)C)nn3)c3ccc4ccccc4c3C2(C)C)C(C)(C)c2c1ccc1ccccc21 [Cy5.5-H2:A(4-24)(F23A)] |  | stimulated a similar increase in drinking behavior |  | 
3 | CCCC[N+]1=C(C=CC=CC=C2N(CCCCCC(=O)NCCCn3cc(C[C@H](N)C(=O)N4CCC[C@H]4C(=O)N[C@H](C(=O)N4CCC[C@H]4C(=O)N[C@@H](CCC(=O)O)C(=O)N[C@@H](CCSC)C(=O)N[C@@H](CCCNC(=N)N)C(=O)N[C@@H](CCC(=O)O)C(=O)N[C@@H](CCCCN)C(=O)N[C@@H](CC(C)C)C(=O)N[C@H]4CSSC[C@@H]5NC(=O)[C@@H](NC(=O)[C@H](Cc6ccc(O)cc6)NC(=O)[C@H](CCCNC(=N)N)NC(=O)[C@H](C)NC(=O)[C@@H]6CCCN6C(=O)[C@H](CC(N)=O)NC(=O)[C@@H](NC(=O)[C@H](C)NC(=O)[C@H](C)NC(=O)[C@H](C)N)[C@@H](C)O)CSSC[C@H](NC(=O)CNC(=O)[C@H](CO)NC(=O)[C@H](CC(C)C)NC5=O)C(=O)N[C@@H]([C@@H](C)O)C(=O)N[C@@H](CCC(N)=O)C(=O)N[C@@H](CCC(N)=O)C(=O)N[C@@H](CC(=O)O)C(=O)N[C@@H](CC(C)C)C(=O)N[C@@H](CC(C)C)C(=O)N[C@@H]([C@@H](C)O)C(=O)N[C@@H](CC(C)C)C(=O)N[C@H](C(=O)N5CCC[C@H]5C(=O)N[C@@H](Cc5ccc(O)cc5)C(=O)O)CSSC[C@@H](C(=O)NCC(=O)NCC(=O)N5CCC[C@H]5C(=O)N[C@@H](CCCNC(=N)N)C(=O)N[C@@H](Cc5c[nH]c6ccccc56)C(=O)N[C@@H](CO)C(=O)N[C@H](C(=O)N[C@@H](CCC(=O)O)C(=O)N[C@@H](C)C(=O)O)[C@@H](C)O)NC(=O)[C@H](C(C)C)NC(=O)[C@H](CCCNC(=N)N)NC(=O)[C@H](C(C)C)NC(=O)[C@H](CC(C)C)NC(=O)[C@H](C)NC(=O)[C@H](CCCNC(=N)N)NC(=O)[C@H](C(C)C)NC(=O)[C@H](Cc5ccccc5)NC(=O)[C@H](Cc5c[nH]cn5)NC(=O)[C@H](Cc5c[nH]cn5)NC(=O)CNC4=O)[C@@H](C)O)nn3)c3ccc4ccccc4c3C2(C)C)C(C)(C)c2c1ccc1ccccc21 [Cy5.5-INSL3] |  | did not initiate a drinking response |  | 
